# Patent publication US20140030346A1, “DISINTEGRABLE CORE PARTICLE FOR PHARMACEUTICAL PREPARATION” (priority 2010, published 2014)
# What was measured:
# [1] = Dissolution test, ibuprofen (paddle method, JP second fluid pH 6.8); format: physicochemical; conditions: JP second fluid pH 6.8, 37° C., 75 rpm
# Protocol: (§1) Dissolution tests were carried oat, according to the procedures shown in Tables 6 to 8 and described below, on pharmaceutical preparations composed of the drug-containing particles obtained in Examples 11 and 12. The results are shown in Tables 9 and 10 and in FIGS. 14 and 15.
# The liquid sampled in the dissolution test is used directly as the sample solution. Analysis according to “2.01 Liquid Chromatography” is carried out on this sample solution. Testing of the ibuprofen content in the sample solution is carried out under the conditions indicated in (1) above.
# In a separate operation, 25 mg of ibuprofen reference is precisely weighed out and dissolved in acetonitrile while bringing the volume up to exactly 50 mL. Next, 5 mL of this solution is precisely measured out and JP second fluid is added so as to bring the volume up to exactly 25 mL, thereby giving a reference solution (about 100 ppm). In a separate operation, 5 mL of this solution is precisely measured out and JP second fluid is added so as to bring the volume up to 50 mL, thereby giving a 50 ppm reference solution. Next, 10 mL of this solution is precisely measured out and JP second fluid is added so as to bring the volume up to exactly 25 mL, thereby giving a […] reference solution. Liquid chromatography is carried out on these reference solutions, and the slopes (a) and intercepts (t) of the straight lines obtained by plotting the peak areas and concentrations of the ibuprofen references are determined. The dissolution rate is determined by entering the content B in the sample solution into the following formula: […]
# [2] = Dissolution test, rabeprazole (paddle method, tris buffer pH 8.0); format: physicochemical; conditions: tris buffer pH 8.0, 37° C., 50 rpm
# Protocol: as §1
# First, 20 mg of rabeprazole sodium is precisely weighed cut and dissolved by adding 30 mL of an aqueous NaOH solution (0.5 M), after which 45 mL of methanol is added, then the volume is brought up to exactly 100mL with a water-methanol solution (2:3). Two mL of this solution is precisely measured out and brought up to exactly 100 mL with a water-methanol solution (2:3), thereby giving a 4 ppm reference solution. In a separate procedure, 2 mL of the same solution is precisely measured out and brought up to a volume of exactly 200 mL with a water-methanol solution (2:3), thereby giving a 2 ppm reference solution. Liquid chromatography is carried on these reference solutions, and the slopes (a) and intercepts (t) of the straight lines obtained by plotting the peak areas and concentrations of rabeprazole are determined.
# One milliliter of an aqueous NaOH solution (0.5 M) is added to 5 mL of the sample solution at each sampling time, and the resulting solution is thoroughly mixed. Next, 4 mL of this solution is precisely measured out, then 2 mL of an aqueous NaOH solution (0.5 M) and 8 mL of methanol are added, following which the volume is brought up to exactly 20 mL with a water-methanol solution (2:3). Liquid chromatography is then carried cut under the conditions described above, and the peak area (Qt) for rabeprazole is determined. Both the reference solutions and the sample solution are used as injection solutions after filtration with a membrane filter having a pore sire of 0.2 μm.
# Dissolution rate (%)=(Qt−t)/a×5×6/5×900/1,000/amount of rabeprazole Na collected (mg)×100
Dissolution rate ([1]; dissolution time 5 min),Dissolution rate ([1]; dissolution time 10 min),Dissolution rate ([1]; dissolution time 15 min),Dissolution rate ([1]; dissolution time 20 min),Dissolution rate ([1]; dissolution time 30 min),Dissolution rate ([1]; dissolution time 60 min),Dissolution rate ([2]; dissolution time 5 min),Dissolution rate ([2]; dissolution time 10 min),Dissolution rate ([2]; dissolution time 15 min),Dissolution rate ([2]; dissolution time 20 min),Dissolution rate ([2]; dissolution time 30 min),Dissolution rate ([2]; dissolution time 60 min),Compound
49.5%,77.3%,83.4%,86.0%,89.6%,95.0%,,,,,,,"CC(C)Cc1ccc(C(C)C(=O)O)cc1 (stereo not drawn) [IBP-Ref., Ibuprofen]"
,,,,,,78.6%,86.0%,87.1%,87.5%,85.5%,78.4%,"COCCCOc1ccnc(C[S+]([O-])c2nc3ccccc3[nH]2)c1C (stereo not drawn) [RBP-Ref., Rabeprazole Na]"
